Assay results taken from patent publication US12239643B2, “Therapeutic agent for inflammatory diseases, autoimmune diseases, fibrotic diseases, and cancer diseases” (MEIJI SEIKA PHARMA CO., LTD., priority 2018, dated 2025).

Tests used:
[1] = tested on: histamine-induced vascular hyperpermeability, Crl:CD1 (ICR) mice; assay: Histamine-induced mouse vascular hyperpermeability model; assay type: in vivo; conditions: 10 mg/kg orally, histamine intradermally
Experimental: Evaluation was carried out using male Crl:CD1 (ICR) mice (6 to 7 weeks of age). First, before conducting the test, the hair on the back of the mice was shaved with a small hair clipper under isoflurane anesthesia (an appropriate amount of about 3% with an inhalation isoflurane anesthesia machine). Next, the mice were orally administered with 10 mg/kg (10 mL/kg) of the test compound dissolved or suspended in 0.5% w/v methylcellulose (0.5% MC), and intravenously administered with 0.4% Evans blue saline (10 mL/kg) after 1 to 4 hours, and approximately 2 minutes later, 15 mM histamine saline was intradermally administered to the dorsal neck as a vascular hyperpermeability substance (20 μL/site). […] The absorption value (620/670 nm) of the supernatant after centrifugation was measured with a plate reader, and the average absorption value of the blank group was subtracted therefrom. Using the resultant as the absorption value of each tissue lysate, the vascular permeability suppression rate was calculated by the following formula. […]
The measurement results obtained by measuring the vascular permeability suppression rate of the test compound by the above method were evaluated in accordance with the following evaluated basis; A: 90% or more, B: 80% or more and less than 90%, and C: less than 80%. […]

IL-5 = assay: Cytokine suppression using whole human blood: IL-5 (CytoStim and CD28 antibody stimulus); assay type: cell-based; conditions: read-out: IL-5 Inhibitory Activity, Human Whole Blood (Test Example 3)
Experimental: The test compound dissolved in dimethyl sulfoxide was added to a 96-well plate, and RPMI-1640 medium and human peripheral blood containing sodium heparin were added, followed by culture at 37° C. under 5% CO2 for 1 hour. A medium containing only dimethyl sulfoxide instead of the test compound was added to the control well. […]
After collecting the culture supernatant after culturing, the amount of each cytokine was measured by the sandwich ELISA method. […]
The measurement results obtained by measuring the TNFα inhibitory activity and IL-5 inhibitory activity (50% inhibitory concentration) of the test compounds by the above method were evaluated in accordance with the following evaluated basis; A: less than 100 nM, B: 100 nM or more and less than 500 nM, and C: 500 nM or more. In addition, the measurement results obtained by measuring the IL-17A inhibitory activity and IL-4 inhibitory activity (50% inhibitory concentration) of the test compounds were evaluated in accordance with the following evaluated basis; A: less than 500 nM, B: 500 nM or more and less than 5000 nM, and C: 5000 nM or more.

[2] = tested on: DSS-induced colitis, C57BL/6J mice; assay: DSS-induced mouse colitis model; assay type: in vivo; conditions: oral once a day, DSS in drinking water
Experimental: Evaluation was carried out using male C57BL/6J mice (7 weeks of age). The mice were allowed to freely drink dextran sodium sulfate (DSS) dissolved in water for 5 days, and then allowed to freely drink water for 4 to 5 days. The test compound was dissolved or suspended in 0.5% w/v methylcellulose (0.5% MC) and orally administered once a day from the first day. The blank was a non-inflammation-induced group orally administered with 0.5% MC instead of the test compound and allowed to freely drink water instead of DSS, and the inflammation-induced control was a group orally administered with 0.5% MC instead of the test compound. The colitis inhibitory effect was evaluated by the disease activity index (DAI) score.

[3] = tested on: substance P-induced pruritus behavior, ICR mice; assay: Mouse pruritus model; assay type: in vivo; conditions: oral, substance P intradermally 2 hours after administration
Experimental: Evaluation was carried out using male ICR mice (5 to 7 weeks of age). A micro magnet was embedded under the skin of both hind limbs of the mice in advance, and the hair on the back of the mouse neck was shaved. On the day of the test, the test compound was dissolved or suspended in 0.5% w/v methylcellulose (0.5% MC) and orally administered. Two hours after administration of the test compound, 50 μL of 300 nM substance P dissolved in saline was intradermally administered to the back of the mouse neck. The blank was a non-pruritus-induced group orally administered with 0.5% MC instead of the test compound and intradermally administered with saline instead of substance P, and the pruritus induction control was a group orally administered with 0.5% MC instead of the test compound. The pruritus measurement system for small animals, MicroAct II, automatically measured pruritus behavior for 30 minutes immediately after intradermal administration.

[4] = tested on: bleomycin-induced pulmonary fibrosis, C57BL/6J mice; assay: Mouse bleomycin model; assay type: in vivo; conditions: oral once a day for 14 days, day 21 after BLM administration, compared with nintedanib
Experimental: Evaluation was carried out using female C57BL/6J mice (7 weeks of age). Bleomycin (BLM) at a concentration of 2 mg/kg was administered oropharyngeally under anesthesia to induce pulmonary fibrosis. Six days after BLM administration, the group was divided into experimental groups so as to achieve a uniform weight loss rate from the BLM administration day. The test compound dissolved or suspended in 0.5% w/v methylcellulose (0.5% MC) was orally administered (10 μL/g) at a concentration of 10 to 100 mg/kg once a day for 14 days from day 7 after the administration of BLM. On day 21 after BLM administration, blood was collected under anesthesia, and the lungs were fixed with a 10% neutral buffered formalin solution and treated for histological examination. To evaluate the degree of fibrosis, the concentration of serum surfactant protein D (SP-D) was measured by the ELISA method.

| Structure (SMILES) | vascular permeability suppression rate [1] | IC50 (IL-5) [nM] | disease activity index (DAI) score [2] | scratching behavior (pruritus behavior for 30 minutes) [3] | pulmonary fibrosis score [4] | serum SP-D concentration [4] |
| --- | --- | --- | --- | --- | --- | --- |
| CC(C)(O)C(F)(F)Oc1ccc(-c2nccs2)c2oc(N3CC4CC(C3)N4)nc12 [Example 248, 1-((2-(3,6-Diazabicyclo[3.1.1]heptan-3-yl)-7-(thiazol-2-yl)benzo[d]oxazol-4-yl)oxy)-1,1-difluoro-2-methylpropan-2-ol] | A (A: 90% or more) | < 500 | suppressed the DAI score at a lower concentration than that of apremilast | suppressed mouse scratching behavior at a lower concentration than apremilast | equal to or lower than those of nintedanib | equal to or lower than those of nintedanib |
| CCOc1cc([C@@H](CS(C)(=O)=O)N2C(=O)c3cccc(NC(C)=O)c3C2=O)ccc1OC [apremilast, reference compound] | C (C: less than 80%) | ≥ 5000 | – | – | – | – |
